Columns and labels:
[1] = test system: Histamin-Freisetzung aus Mastzellen; experiment: allergically induced histamine release (sensitised rats, method of Shore et al.); assay type: cell-based, Ratten; conditions: Mast cell, concentration 10 µmol/l, read-out: Hemmung der Freisetzung
Description: Die pharmakologische Testung auf Wirksamkeit bei der allergisch induzierten Histaminfreisetzung an sensibilisierten Ratten erfolgte gemäß der Versuchsvorschrift von P.A. Shore et al., I. Pharmacol. Exp. Ther., 127 (1959), S. 182.
Die Verbindung gemäß gemaß Beispiel 1 zeigt folgende Werte: Bei der allergisch induzierten Histamin-Freisetzung ergibt ein Konzentration 10 µmol/l eine 25 % - Hemmung der Freisetzung.

LTD-4-Rezeptor = biological target: T1, LTD-4-Rezeptor (Homo sapiens, UniProt Q9Y271); experiment: inhibition of LTD-4 receptor binding (Borbe and Zierenberg); conditions: read-out: Hemmung von 50 % der Aktivität bei einer Konzentration von
T1 sequence (Q9Y271 1-337): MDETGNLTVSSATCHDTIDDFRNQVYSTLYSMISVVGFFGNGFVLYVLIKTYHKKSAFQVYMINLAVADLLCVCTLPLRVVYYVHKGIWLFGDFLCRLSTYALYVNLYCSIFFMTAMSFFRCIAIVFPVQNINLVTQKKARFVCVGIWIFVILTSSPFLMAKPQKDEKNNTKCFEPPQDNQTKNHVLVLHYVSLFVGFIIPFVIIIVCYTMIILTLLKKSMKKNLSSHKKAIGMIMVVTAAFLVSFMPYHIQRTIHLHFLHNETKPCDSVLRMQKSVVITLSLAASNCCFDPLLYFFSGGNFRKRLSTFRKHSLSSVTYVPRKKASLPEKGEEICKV
Protocol: (§1) Die Verbindung gemäß Beispiel 16 zeigt im Versuch der Hemmung der Spätphaseneosinophile in Meerschweinchen gemäß der Vorschrift von Cartwright, Diagnostic Laboratory Hematology, 1968, S. 48 und Mac Fortare et al, Eosinophil Counting, Brit. Med. 9., 2, 1187 (1951) in der Dosis von 30 mg pro Kilogramm Körpergewicht, gegeben p.o., einen Hemmwert von 80 %. Bei der Hemmung der LTD-4-Rezeptor-Bindung gemäß Borbe und Zierenberg, Pharmacopsychiatry 18, 314 319 (1985) ergab sich eine Hemmung von 50 % der Aktivität bei einer Konzentration von 7,4 µmol/l.

Spätphaseneosinophile = experiment: inhibition of late-phase eosinophils in guinea pigs (Cartwright; eosinophil counting); assay type: in vivo, Meerschweinchen; conditions: 30 mg pro Kilogramm Körpergewicht, p.o.
Protocol: as §1

Row | IC50 (LTD-4-Rezeptor) | Structure (SMILES) | inhibition at 10 µM [1] | Hemmwert (Spätphaseneosinophile)
1 | – | O=C1CN2N=C(c3ccccc3)c3ccccc3C2=NN1 [Beispiel 1, 7-Phenyl-2H-triazino(3,4a)phthalazin-3(4H)-on] | 25% | –
2 | 7.4 µM | CN1CC(=O)NN=C1c1ccc(OCc2ccc3ccccc3n2)c(Cl)c1 [Beispiel 16, 3-{3-Chlor-4-[(2-chinolyl)methoxy]phenyl}-4-methyl-4,5-dihydro-1,2,4-triazin-6-on] | – | 80%

Source: patent EP0599152A1, “Triazinones and Triazinophthalazinones possessing antiasthmatic/antiallergic, positive inotropic and antihypertensive activities” (ASTA Medica Aktiengesellschaft, priority 1992, dated 1994)
